According to the supplement of paper PMC10307832:

Tests used:
Experiment in all cases: relative viability (nuclei count vs DMSO), 5 days (fraction); higher = more cells survive
NCI-H1792 = tested on: NCI-H1792
Method in brief: (§1)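 Each reported value is a median over duplicate plates. It expresses relative viability: treated-well nuclei count divided by vehicle-well nuclei count. Lung cancer cell lines in 1536-well plates were dosed by pin tool a day after seeding, alone with one drug or with a fixed anchor-drug dose plus five library-drug doses (not always all listed) in √10 steps, and nuclei were counted after 5 days.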

PC-3 [JPC-3] = tested on: PC-3 [JPC-3]
Method in brief: as §1

SK-MES-1 = tested on: SK-MES-1
Method in brief: as §1

LK-2 = tested on: LK-2
Method in brief: as §1

NCI-H1944 = tested on: NCI-H1944
Method in brief: as §1

COR-L 105 = tested on: COR-L 105
Method in brief: as §1

ChaGo-K-1 = tested on: ChaGo-K-1
Method in brief: as §1

NCI-H2170 = tested on: NCI-H2170
Method in brief: as §1

SW 900 = tested on: SW 900
Method in brief: as §1

H3255 = tested on: H3255
Method in brief: as §1

NCI-H520 = tested on: NCI-H520
Method in brief: as §1

NCI-H441 = tested on: NCI-H441
Method in brief: as §1

HCC-366 = tested on: HCC-366
Method in brief: as §1

NCI-H1975 = tested on: NCI-H1975
Method in brief: as §1

EMC-BAC-2 = tested on: EMC-BAC-2
Method in brief: as §1

NCI-H23 = tested on: NCI-H23
Method in brief: as §1

A-427 = tested on: A-427
Method in brief: as §1

NCI-H1666 = tested on: NCI-H1666
Method in brief: as §1

LOU-NH91 = tested on: LOU-NH91
Method in brief: as §1

EKVX = tested on: EKVX
Method in brief: as §1

NCI-H1755 = tested on: NCI-H1755
Method in brief: as §1

NCI-H1734 = tested on: NCI-H1734
Method in brief: as §1

SMILES: C[C@@H]1CN(CC(=O)Nc2ccc3c(c2)Cc2cccc(-c4cc(=O)cc(N5CCOCC5)o4)c2S3)C[C@H](C)O1 + CC(=O)c1c(C)c2cnc(Nc3ccc(N4CCNCC4)cn3)nc2n(C2CCCC2)c1=O [Palbociclib] (partner 0.5 µM)
- relative viability (NCI-H1792; first compound 0.04 µM): 0.61
- relative viability (NCI-H1792; first compound 0.1265 µM): 0.594
- relative viability (NCI-H1792; first compound 0.4 µM): 0.658
- relative viability (NCI-H1792; first compound 4 µM): 0.563
- relative viability (PC-3 [JPC-3]; first compound 0.04 µM): 0.501
- relative viability (PC-3 [JPC-3]; first compound 0.1265 µM): 0.515
- relative viability (PC-3 [JPC-3]; first compound 0.4 µM): 0.535
- relative viability (PC-3 [JPC-3]; first compound 4 µM): 0.477
- relative viability (SK-MES-1; first compound 0.04 µM): 0.35
- relative viability (SK-MES-1; first compound 0.1265 µM): 0.323
- relative viability (SK-MES-1; first compound 0.4 µM): 0.309
- relative viability (SK-MES-1; first compound 4 µM): 0.302
- relative viability (LK-2; first compound 0.04 µM): 0.6
- relative viability (LK-2; first compound 0.1265 µM): 0.697
- relative viability (LK-2; first compound 0.4 µM): 0.651
- relative viability (LK-2; first compound 4 µM): 0.792
- relative viability (NCI-H1944; first compound 0.1265 µM): 0.343
- relative viability (NCI-H1944; first compound 0.4 µM): 0.344
- relative viability (NCI-H1944; first compound 4 µM): 0.354
- relative viability (COR-L 105; first compound 0.04 µM): 0.391
- relative viability (COR-L 105; first compound 0.1265 µM): 0.424
- relative viability (COR-L 105; first compound 0.4 µM): 0.397
- relative viability (COR-L 105; first compound 4 µM): 0.328
- relative viability (ChaGo-K-1; first compound 0.04 µM): 0.902
- relative viability (ChaGo-K-1; first compound 0.1265 µM): 0.924
- relative viability (ChaGo-K-1; first compound 0.4 µM): 0.925
- relative viability (ChaGo-K-1; first compound 4 µM): 0.898
- relative viability (NCI-H2170; first compound 0.04 µM): 0.399
- relative viability (NCI-H2170; first compound 0.1265 µM): 0.436
- relative viability (NCI-H2170; first compound 0.4 µM): 0.416
- relative viability (NCI-H2170; first compound 4 µM): 0.36
- relative viability (SW 900; first compound 0.04 µM): 0.532
- relative viability (SW 900; first compound 0.1265 µM): 0.472
- relative viability (SW 900; first compound 0.4 µM): 0.564
- relative viability (SW 900; first compound 4 µM): 0.412
- relative viability (H3255; first compound 0.04 µM): 0.276
- relative viability (H3255; first compound 0.1265 µM): 0.345
- relative viability (H3255; first compound 0.4 µM): 0.268
- relative viability (H3255; first compound 4 µM): 0.305
- relative viability (NCI-H520; first compound 0.04 µM): 0.219
- relative viability (NCI-H520; first compound 0.1265 µM): 0.259
- relative viability (NCI-H520; first compound 0.4 µM): 0.172
- relative viability (NCI-H520; first compound 4 µM): 0.215
- relative viability (NCI-H441; first compound 0.04 µM): 0.257
- relative viability (NCI-H441; first compound 0.1265 µM): 0.213
- relative viability (NCI-H441; first compound 0.4 µM): 0.223
- relative viability (NCI-H441; first compound 4 µM): 0.227
- relative viability (HCC-366; first compound 0.04 µM): 0.386
- relative viability (HCC-366; first compound 0.1265 µM): 0.467
- relative viability (HCC-366; first compound 0.4 µM): 0.395
- relative viability (HCC-366; first compound 4 µM): 0.184
- relative viability (NCI-H1975; first compound 0.04 µM): 0.578
- relative viability (NCI-H1975; first compound 0.1265 µM): 0.58
- relative viability (NCI-H1975; first compound 0.4 µM): 0.395
- relative viability (NCI-H1975; first compound 4 µM): 0.487
- relative viability (EMC-BAC-2; first compound 0.04 µM): 0.502
- relative viability (EMC-BAC-2; first compound 0.1265 µM): 0.529
- relative viability (EMC-BAC-2; first compound 0.4 µM): 0.502
- relative viability (EMC-BAC-2; first compound 4 µM): 0.545
- relative viability (NCI-H23; first compound 0.04 µM): 0.455
- relative viability (NCI-H23; first compound 0.1265 µM): 0.538
- relative viability (NCI-H23; first compound 0.4 µM): 0.436
- relative viability (NCI-H23; first compound 4 µM): 0.495
- relative viability (A-427; first compound 0.04 µM): 0.428
- relative viability (A-427; first compound 0.1265 µM): 0.531
- relative viability (A-427; first compound 0.4 µM): 0.537
- relative viability (A-427; first compound 4 µM): 0.593
- relative viability (NCI-H1666; first compound 0.04 µM): 0.584
- relative viability (NCI-H1666; first compound 0.1265 µM): 0.616
- relative viability (NCI-H1666; first compound 0.4 µM): 0.611
- relative viability (NCI-H1666; first compound 4 µM): 0.662
- relative viability (LOU-NH91; first compound 0.04 µM): 0.536
- relative viability (LOU-NH91; first compound 0.1265 µM): 0.481
- relative viability (LOU-NH91; first compound 0.4 µM): 0.55
- relative viability (LOU-NH91; first compound 4 µM): 0.509
- relative viability (EKVX; first compound 0.04 µM): 0.342
- relative viability (EKVX; first compound 0.1265 µM): 0.396
- relative viability (EKVX; first compound 0.4 µM): 0.308
- relative viability (EKVX; first compound 4 µM): 0.288
- relative viability (NCI-H1755; first compound 0.04 µM): 0.475
- relative viability (NCI-H1755; first compound 0.1265 µM): 0.449
- relative viability (NCI-H1755; first compound 0.4 µM): 0.432
- relative viability (NCI-H1755; first compound 4 µM): 0.399
- relative viability (NCI-H1734; first compound 0.04 µM): 0.386
- relative viability (NCI-H1734; first compound 0.1265 µM): 0.354
- relative viability (NCI-H1734; first compound 0.4 µM): 0.308
- relative viability (NCI-H1734; first compound 4 µM): 0.433
